Results reported in US7335352B1, “Method of identifying agents that inhibit quorum sensing activity of gamma-proteobacteria” (priority 2003, dated 2008).
Entries after “also recorded” stand apart in the source; their conditions may differ. Read-outs that look alike come from different tables or passages of the source.

Assays:
P. aeruginosa PAO1 [1] = type: cell-based, Pseudomonas aeruginosa; conditions: for Yield: substrate as energy source; for Use as sole source of energy or nitrogen: MES 5.5 media; for Utilization as an energy source: pH 5.5
Protocol: (§1) Media and growth conditions. LB, amended with antibiotics when appropriate, was used for growth and maintenance of all strains unless otherwise stated. For the 3OC12HSL-dependent enrichment of strain PAI-A and other growth experiments performed on this strain, modified “MES 5.5” defined-medium was used to enrich and study Variovorax paradoxus VAI-C (21). These modifications to the medium included buffering with 5 mM 3-(N-morpholino)-propanesulfonic acid (MOPS) at pH 7.2 and the addition of sodium sulfate (14 g·liter^−1) and magnesium chloride (4 g·liter^−1). For growth experiments with P. aeruginosa, “MES 5.5” defined medium was used as described previously (21) with the exception that it contained sodium sulfate, not sulfite, as S-source, a typographical error in the reported recipe. Unless otherwise noted, the medium was buffered to a pH of 5.5 with 5 mM 2-(N-morpholino)-ethanesulfonic acid (MES). Ammonium-free “MES 5.5” basal medium was used to examine the utilization of AHLs and HSL as potential nitrogen sources. 100 mM stock solutions of AHLs were prepared by dissolving AHLs in ethyl acetate that had been acidified with glacial acetic acid (0.01% v/v), and stocks were stored at −20° C. AHLs used in these studies were: N-3-oxododecanoyl-L-homoserine lactone (3OC12HSL; Quorum Sciences Inc., Iowa City Iowa), N-3-oxohexanoyl-L-homoserine lactone (3OC6HSL; Sigma), and from Fluka: N-3-butanoyl-DL-homoserine lactone (C4HSL), N-3-hexanoyl-DL-homoserine lactone (C6HSL), N-3-heptanoyl-DL-homoserine lactone (C7HSL), N-3-octanoyl-DL-homoserine lactone (C8HSL), N-3-[…], N-3-dodecanoyl-DL-homoserine lactone (C12HSL), N-3-tetradecanoyl-DL-homoserine lactone (C14HSL). For growth experiments, the AHL was dispensed into sterile tubes, the ethyl acetate was removed by evaporation under a stream of sterile air, and sterile medium was added to the dried AHL that remained. Stocks of L-HSL (Sigma) were prepared just prior to their use from well-desiccated reagent stored at −20° C. […] Cells were grown in 5 ml of medium in 18-mm tubes with shaking at 37° C. unless otherwise noted. AHL molecules are stable for approximately 30 days under the conditions of low pH in our defined medium (9, 34). Unless noted, all other reagents were of reagent grade.
(§2) Growth studies. Optical density measurements were performed at 600 nm using a Spectronic 20 spectrophotometer. […] When care was taken to vortex tubes gently, the changes in optical density reflecting growth could be monitored accurately. Molar growth yields were determined in the defined media containing the indicated substrate at a final concentration of 1 or 2 mM. For both Pseudomonas PAI-A and P. aeruginosa PAO1, factors for converting optical density to cell dry mass were determined by growing cells in media containing succinate as the energy source and NH4Cl as the nitrogen source, washing the cells with 50 mM ammonium acetate buffer (pH 5.5), and drying cell samples to a constant weight. Such determinations were made in quadruplicate.

Pseudomonas strain PAI-A [2] = type: cell-based
Protocol: as §1, §2

PvdQ AHL acylase = biological target: T1, PvdQ AHL acylase (Pseudomonas aeruginosa, UniProt Q9I194); experiment: AHL degradation by resting E. coli cells expressing recombinant PvdQ (LC/APCI-MS); type: cell-based, P. aeruginosa; conditions: for HSL-releasing degradation by E. coli expressing recombinant PvdQ: resting cells OD600 1.2, MOPS pH 7.2, 18° C., 10 μM 3OC12HSL; for Product accumulation in PvdQ-expressing E. coli suspensions: incubated with 10 μM 3OC12HSL
T1 construct: The deduced coding region for PvdQ (Gene PA2385; www.pseudomonas.com) was amplified from the genomic DNA; expressed in transfected cells; host or cells: E. coli BL21PRO carrying pPvdQ-PROTet (pPROTet.E133-derived, aTc-inducible)
Text: (§3) Analysis of cell-free culture and reaction fluids. […] Dilutions were made using “MES 5.5” medium.
Cloning and expression of pvdQ (PA2385) encoding a putative P. aeruginosa AHL acylase. Genomic DNA was isolated from P. aeruginosa PAO1 using the DNeasy™ tissue kit (QIAGEN) and used as a template for PCR. The deduced coding region for PvdQ (Gene PA2385; www.pseudomonas.com) was amplified from the genomic DNA using the following primers: 5′-[…]-3′ (SEQ ID NO:6) and 5′-[…]-3′ (SEQ ID NO:7; bold print indicates HindIII and NotI restriction sites, respectively), cloned into the appropriately digested expression vector, pPROTet.E133 (Clontech), and transformed into E. coli BL21PRO. Recombinant AHL acylase activity was examined as follows. After growth in LB medium containing spectinomycin (50 μg ml^−1) and chloramphenicol (34 μg ml^−1), and after gene induction by the addition of anhydrotetracycline (aTc, 100 ng ml^−1) at 18° C., cells were pelleted and resuspended to a final optical density of 1.2 in MOPS buffered media (pH 7.2) containing 10 μM 3OC12HSL. Recombinant cells that had not been induced with aTc were used as a negative control. Reaction mixtures were incubated at 18° C.; 150 μl samples were removed at 0, 15, 30, and 60 min and analyzed for AHL disappearance and product appearance via LC/APCI-MS (see above).

P. aeruginosa PA14 = experiment: Growth of P. aeruginosa PA14 on 3OC12HSL as sole energy source; type: cell-based, Pseudomonas aeruginosa; conditions: defined ammonia-replete media, pH 5.5 and 7.2, naive cells after lag
Protocol: Media and growth conditions. LB, amended with antibiotics when appropriate, was used for growth and maintenance of all strains unless otherwise stated. For the 3OC12HSL-dependent enrichment of strain PAI-A and other growth experiments performed on this strain, modified “MES 5.5” defined-medium was used to enrich and study Variovorax paradoxus VAI-C (21). These modifications to the medium included buffering with 5 mM 3-(N-morpholino)-propanesulfonic acid (MOPS) at pH 7.2 and the addition of sodium sulfate (14 g·liter^−1) and magnesium chloride (4 g·liter^−1). For growth experiments with P. aeruginosa, “MES 5.5” defined medium was used as described previously (21) with the exception that it contained sodium sulfate, not sulfite, as S-source, a typographical error in the reported recipe. Unless otherwise noted, the medium was buffered to a pH of 5.5 with 5 mM 2-(N-morpholino)-ethanesulfonic acid (MES). Ammonium-free “MES 5.5” basal medium was used to examine the utilization of AHLs and HSL as potential nitrogen sources. 100 mM stock solutions of AHLs were prepared by dissolving AHLs in ethyl acetate that had been acidified with glacial acetic acid (0.01% v/v), and stocks were stored at −20° C. […]

Pseudomonas strain PAI-A [3] = experiment: TLC of reaction fluids of dense PAI-A cell suspensions incubated with AHL; type: cell-based; conditions: dense PAI-A cell suspension; 25 mM C12HSL
Text: as §3

P. aeruginosa PAO1 [4] = conditions: dense PAO1 cell suspension; 25 mM C12HSL
Text: Analysis of cell-free culture and reaction fluids. For the initial characterization of the intermediates in AHL degradation, a TLC method was used (16).

[5] = P. aeruginosa PAO1, minimal salts media pH 5.5
[6] = strain PAI-A, minimal salts media pH 7.2

T1 sequence (Q9I194 24-193): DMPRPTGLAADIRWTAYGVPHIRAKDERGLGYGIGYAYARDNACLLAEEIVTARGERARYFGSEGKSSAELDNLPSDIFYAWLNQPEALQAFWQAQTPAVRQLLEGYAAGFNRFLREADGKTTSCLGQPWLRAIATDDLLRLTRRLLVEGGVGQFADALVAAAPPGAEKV
T1 sequence (Q9I194 217-762): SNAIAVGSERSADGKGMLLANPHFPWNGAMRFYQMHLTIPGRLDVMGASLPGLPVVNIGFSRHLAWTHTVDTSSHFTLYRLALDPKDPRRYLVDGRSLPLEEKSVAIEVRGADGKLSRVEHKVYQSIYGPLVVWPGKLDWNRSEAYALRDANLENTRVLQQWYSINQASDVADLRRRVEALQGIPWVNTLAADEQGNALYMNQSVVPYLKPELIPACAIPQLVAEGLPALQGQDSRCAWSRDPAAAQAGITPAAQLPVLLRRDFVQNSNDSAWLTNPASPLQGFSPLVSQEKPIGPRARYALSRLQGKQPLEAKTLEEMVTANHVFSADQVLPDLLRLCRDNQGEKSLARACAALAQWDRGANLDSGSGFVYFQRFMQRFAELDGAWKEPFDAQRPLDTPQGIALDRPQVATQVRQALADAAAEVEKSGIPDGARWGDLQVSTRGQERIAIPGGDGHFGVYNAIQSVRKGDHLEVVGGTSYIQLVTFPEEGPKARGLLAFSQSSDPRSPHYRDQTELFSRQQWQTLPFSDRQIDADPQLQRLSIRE

Row | SMILES | Yield (P. aeruginosa PAO1 [1]; [5]) [g/mol] | Yield (Pseudomonas strain PAI-A [2]; [6]) | Doubling time (P. aeruginosa PAO1 [1]; [5]) | HSL-releasing degradation by E. coli expressing recombinant PvdQ (PvdQ AHL acylase) | further results
1 | CCCCCCCCCCCC(=O)O [Dodecanoate] | 141 ± 4 | 155 ± 8.4 g/mol | – | – | –
2 | N[C@@H](CCO)C(=O)O [homoserine] | – | – | – | – | Use as sole source of energy or nitrogen (P. aeruginosa PAO1 [1]; P. aeruginosa PAO1): did not use; Utilization as an energy source (P. aeruginosa PAO1 [1]; P. aeruginosa PAO1): did not grow
3 | CCCCCCCC(=O)NC1CCOC1=O (racemic) [C8-DL-HSL, N-3-octanoyl-DL-homoserine lactone] | 95 ± 4 | – | 15.0 ± 2 h | catalyzed the HSL-releasing degradation | Yield (qualitative) (Pseudomonas strain PAI-A [2]; [6]): +, ND^b
4 | CCCCCCCCCCCCCC(=O)O [Tetradecanoate] | 177 ± 16 | 198 ± 3 g/mol | – | – | –
5 | CCCC(=O)NC1CCOC1=O (racemic) [C4HSL, N-3-butanoyl-DL-homoserine lactone] | – | – | – | – | Degradation of short chain AHL given as co-substrate (P. aeruginosa PAO1 [1]; PAO-1, 1 mM C4HSL in 3OC12HSL-containing media): did not degrade detectable amounts; Degradation of short chain AHL given as co-substrate (Pseudomonas strain PAI-A [2]; PAI-A, 1 mM C4HSL in 3OC12HSL-containing media): did not degrade detectable amounts
6 | CCCCCCCCCC(=O)CC(=O)NC(CCO)C(=O)O (centres unmarked) [3OC12-homoserine] | – | – | – | – | Product accumulation in PvdQ-expressing E. coli suspensions (PvdQ AHL acylase): No 3OC12-homoserine accumulation was observed
7 | O=C(O)CCC(=O)O [Succinate] | 43 ± 3 | – | 0.6 ± .09 h | – | Doubling time (Pseudomonas strain PAI-A [2]): 0.583 h; Doubling time (Pseudomonas strain PAI-A [2]; pH 7.2): 0.6 ± .02 h; Yield (Pseudomonas strain PAI-A [2]; pH 7.2): 49 ± 3.8 g/mol
8 | CCn1cc(C(=O)O)c(=O)c2ccc(C)nc21 [nalidixate] | – | – | – | – | Growth in media containing the agent (Pseudomonas strain PAI-A [2]; PAI-A, 30 μg nalidixate·ml^−1): did not grow
9 | CCCCCCCCCC(=O)CC(=O)N[C@H]1CCOC1=O [3OC12-L-HSL, N-3-oxododecanoyl-L-homoserine lactone] | 76 ± 10 | 84 ± .2 g/mol | 25.0 ± 3 h | degraded 3OC12HSL; also recorded: Within an hour, the AHL disappeared | Doubling time (P. aeruginosa PAO1 [1]; PAO1, defined ammonia-replete media, pH 5.5 and 7.2, naive cells after lag): 264 to 600 h; Doubling time (Pseudomonas strain PAI-A [2]; [6]): 25.0 ± 3.5 h; Doubling time (P. aeruginosa PA14): 11 to 25 days
10 | N[C@H]1CCOC1=O [HSL, homoserine lactone] | – | – | – | – | Use as sole source of energy or nitrogen (P. aeruginosa PAO1 [1]; P. aeruginosa PAO1): did not use; Utilization as an energy source (P. aeruginosa PAO1 [1]; P. aeruginosa PAO1): Neither strain PAI-A nor PAO1 used; also recorded: did not grow; Utilization as an energy source (Pseudomonas strain PAI-A [2]; strain PAI-A, pH 7.2): Neither strain PAI-A nor PAO1 used; Product accumulation in PvdQ-expressing E. coli suspensions (PvdQ AHL acylase): accumulation of stoichiometric amounts
11 | CCCCCCCCCC(=O)O [Decanoate] | 130 ± 3 | 126 ± .5 g/mol | – | – | –
12 | CCCCCCCCCCCC(=O)NC1CCOC1=O (racemic) [C12-DL-HSL, N-3-dodecanoyl-DL-homoserine lactone] | 84 ± 7 | 80 ± 18 g/mol | 14.9 ± 7.5 h | catalyzed the HSL-releasing degradation | Doubling time (Pseudomonas strain PAI-A [2]; [6]): 16.5 ± 3 h; AHL-dependent release of ninhydrin-reactive materials (HSL, homoserine) by TLC (Pseudomonas strain PAI-A [3]): AHL-dependent release of ninhydrin-reactive materials; AHL-dependent release of ninhydrin-reactive materials (HSL, homoserine) by TLC (P. aeruginosa PAO1 [4]): AHL-dependent release of ninhydrin-reactive materials
13 | CCCCCCCCCCCCCC(=O)NC1CCOC1=O (racemic) [C14-DL-HSL, N-3-tetradecanoyl-DL-homoserine lactone] | 84 ± 12 | – | 21.0 ± 5.3 h | catalyzed the HSL-releasing degradation | Yield (qualitative) (Pseudomonas strain PAI-A [2]; [6]): +, ND^
14 | CCCCCCCCCC(=O)NC1CCOC1=O (racemic) [C10-DL-HSL, N-3-decanoyl-DL-homoserine lactone] | 97 ± 3 | – | 14.0 ± 3.8 h | catalyzed the HSL-releasing degradation | Yield (qualitative) (Pseudomonas strain PAI-A [2]; [6]): +, ND^
